Source: patent US4108991A, “N-aminosulfenyl derivatives of aldicarb” (priority 1976, dated 1978)

Assays:
[1] = tested on: Milkweed bug; test: Residual (7-day) contact activity, milkweed bug; type: in vivo, Oncopeltus fasciatus [Dallas]; conditions: Oncopeltus fasciatus, 168 h, residual 7-day, MWB, read-out: Percent Kill
Experimental: (§1) Initial Contact Activity: One half gram of test compound was dissolved in 40 ml of acetone and this solution was dispersed in 360 ml of water containing one drop of isooctylphenyl polyethoxyethanol. Aliquots of this solution, which corresponds to 1250 ppm of active ingredient, were diluted with an appropriate amount of water to provide solutions containing various concentrations of active ingredient. Test organisms and techniques were as follows: The activity against the Mexican bean beetle (Epilachna varivestis Muls.) and the southern armyworm (Spodoptera eridania [Cram.]) was evaluated by dipping the leaves of pinto bean plants into the test solution and infesting the leaves with the appropriate immature-form insects when the foiliage had dried; the activity against the pea aphid (Acyrthosiphon pisum [Harris]) was evaluated on broad bean plants whose leaves were dipped before infestation with adult aphids; the activity against two-sotted spider mites (Tetranychus urticae Koch) was evaluated on pinto bean plants whose leaves were dipped after infestation with adult mites; the activity against the milkweed bug (Oncopeltus fasciatus [Dallas]), and the plum curculio (Conotrachelus nenuphar [Herbst]) was evaluated by spraying the test solutions into glass dishes or jars containing the adult insects; the activity against the confused flour beetle (Tribolium confusum duVal) was evaluated by introducing the insects into glass dishes which had been previously sprayed with test solution and allowed to dry. All organisms in the test were maintained in a holding room at 80° F and 50% relative humidity for an exposure period of 48 hours. At the end of this time, the dead and living insects or mites were counted, and the percent kill was calculated.
(§2) Residual Contact Activity: The residual contact activity of the compounds was determined on the same organisms using the techniques described above, except that in each case the treated surface was allowed to dry and was exposed to normal light and air for seven days before introduction of the mites or insects.

[2] = tested on: Plum curculio; test: Residual (7-day) contact activity, plum curculio; type: in vivo, Conotrachelus nenuphar [Herbst]; conditions: Conotrachelus nenuphar, 168 h, residual 7-day, PC, read-out: Percent Kill
Experimental: as §1, §2

[3] = tested on: Two-spotted spider mite; test: Residual (7-day) contact activity, two-spotted spider mite; type: in vivo, Tetranychus urticae Koch; conditions: Tetranychus urticae, 168 h, residual 7-day, SM, read-out: Percent Kill
Experimental: as §1, §2

[4] = tested on: Two-spotted spider mite; test: Systemic activity, soil-watering, two-spotted spider mite; type: in vivo, Tetranychus urticae Koch; conditions: Tetranychus urticae, 48 h, systemic, SM, read-out: Percent Kill
Experimental: as §1
(§3) Systemic Activity: Systemic activity was measured using a soil-watering technique. Test organisms were Mexican bean beetle, southern armyworm, pea aphid, and mites on plants as described above in this Example. With appropriate precautions to avoid contact of the solution with the test plant surfaces, 25 ml of a test solution, prepared as above to contain the desired amount of active ingredient, were poured evenly over the surface of the soil in which the plant was growing. The treated plants were maintained under normal growing conditions for three days to permit translocation of the toxicant, after which the leaves were infested. Two days after infestation, counts of living and dead insects were made.

[5] = tested on: Granary Weevil; test: Residual (7-day) contact activity, granary weevil; type: in vivo; conditions: Sitophilus granarius, 168 h, residual 7-day, GW, read-out: Percent Kill
[6] = tested on: Pea aphid; test: Residual (7-day) contact activity, pea aphid; type: in vivo, Acyrthosiphon pisum [Harris]; conditions: Acyrthosiphon pisum, 168 h, residual 7-day, PA, read-out: Percent Kill
Experimental: as §1, §2

[7] = tested on: Mexican bean beetle; test: Systemic activity, soil-watering, Mexican bean beetle; type: in vivo, Epilachna varivestis Muls.; conditions: Epilachna varivestis, 48 h, systemic, BB, read-out: Percent Kill
Experimental: as §1, §3

[8] = tested on: Pea aphid; test: Initial contact activity, leaf dip, pea aphid; type: in vivo, Acyrthosiphon pisum [Harris]; conditions: Acyrthosiphon pisum, foliar, 48 h, initial, PA, 48 hours, read-out: Percent Kill
Experimental: as §1

[9] = tested on: Pea aphid; test: Systemic activity, soil-watering, pea aphid; type: in vivo, Acyrthosiphon pisum [Harris]; conditions: Acyrthosiphon pisum, 48 h, systemic, PA, read-out: Percent Kill
Experimental: as §1, §3

[10] = tested on: Southern armyworm; test: Systemic activity, soil-watering, southern armyworm; type: in vivo, Spodoptera eridania [Cram.]; conditions: Spodoptera eridania, 48 h, systemic, AW, read-out: Percent Kill
Experimental: as §1, §3

[11] = tested on: Granary Weevil; test: Initial contact activity, granary weevil; type: in vivo; conditions: Sitophilus granarius, 48 h, initial, GW, 48 hours, read-out: Percent Kill
[12] = Toxicity to rats, acute oral median lethal dose (LD50), Method A; type: in vivo, young female albino rats, derived from Sprague-Dawley stock; conditions: in vivo, rat, corn oil, 14 days observation
Experimental: (§4) Method A: Young female albino rats, derived from Sprague-Dawley stock and weighing between 175 and 200 g, were used. An initial screening was conducted to determine the general level of toxicity of the test compounds and to establish the dosing range to be used with each compound. The test materials were suspended in corn oil and administered directly into the stomachs of the rats, using a hypodermic syringe equipped with a ball-tipped intubating needle. A range of dosing levels was employed utilizing two rats at each level. […] This method was used to determine the toxicity to rats of the compounds of Examples I, II, and III and aldicarb.

[13] = tested on: rats; test: as above; type: in vivo, young female albino rats, derived from Sprague-Dawley stock; conditions: rat; for Enhancement LD50 Derivative/LD50 Aldicarb: ratio to aldicarb
Experimental: as §4

[14] = tested on: Southern armyworm; test: Initial contact activity, leaf dip, southern armyworm; type: in vivo, Spodoptera eridania [Cram.]; conditions: Spodoptera eridania, foliar, 48 h, initial, AW, 48 hours, read-out: Percent Kill
Experimental: as §1

[15] = tested on: Confused flour beetle; test: Residual (7-day) contact activity, confused flour beetle; type: in vivo, Tribolium confusum duVal; conditions: Tribolium confusum, 168 h, residual 7-day, FB, read-out: Percent Kill
Experimental: as §1, §2

| SMILES | mortality at 156 ppm [1] | mortality at 312 ppm [1] | mortality at 1250 ppm [1] | mortality at 156 ppm [2] | mortality at 312 ppm [2] | mortality at 1250 ppm [2] | mortality at 156 ppm [3] | mortality at 312 ppm [3] | mortality at 1250 ppm [3] | mortality at 2.5 ppm [4] | mortality at 5 ppm [4] | mortality at 10 ppm [4] | mortality at 312 ppm [5] | mortality at 1250 ppm [5] | mortality at 156 ppm [6] | mortality at 312 ppm [6] | mortality at 1250 ppm [6] | mortality at 39 ppm [7] | mortality at 156 ppm [7] | mortality at 10 ppm [8] | other results |
| --- | --- | --- | --- | --- | --- | --- | --- | --- | --- | --- | --- | --- | --- | --- | --- | --- | --- | --- | --- | --- | --- |
| CCCCN(CCCC)SN(C)C(=O)ON=CC(C)(C)SC [Example III, 2-methyl-2-(methylthio)propanal O-[(dibutylaminosulfenyl)(methyl)carbamoyl]oxime] | 20% | 70% | 100% | 5% | 9.5% | 5% | 18% | 45% | 100% | 0.9% | 0% | 0.7% | 0% | 17% | 0% | 0% | 0% | 20% | 100% | 53% | mortality at 39 ppm [8]: 19%; mortality at 156 ppm [8]: 100%; mortality at 1250 ppm [8]: 100%; mortality at 10 ppm [9]: 0%; mortality at 39 ppm [9]: 64%; mortality at 312 ppm [10]: 0%; mortality at 625 ppm [10]: 68%; mortality at 156 ppm [11]: 100%; mortality at 312 ppm [11]: 100%; mortality at 1250 ppm [11]: 100%; LD50 at 336 h [12]: 12.5 mg/kg; LD50 relative to that of aldicarb [13]: 25 times; Enhancement LD50 Derivative/LD50 Aldicarb [13]: 25; mortality at 156 ppm [14]: 0%; mortality at 312 ppm [14]: 0%; mortality at 625 ppm [14]: 0%; mortality at 1250 ppm [14]: 20%; mortality at 312 ppm [15]: 0%; mortality at 1250 ppm [15]: 0% |
| CSC(C)(C)C=NOC(=O)N(C)SN(C)Cc1ccccc1 [Example I, 2-methyl-2-(methylthio)propanol O-[(N-benzyl-N-methylaminosulfenyl)(methyl)carbamoyl]oxime] | 90% | 95% | 100% | 23% | 43% | 20% | 3.2% | 63% | 99.5% | 0.9% | 2.3% | 4.3% | 41% | 100% | 0% | 6.3% | 100% | 0% | 75% | 20% | mortality at 39 ppm [8]: 62%; mortality at 156 ppm [8]: 100%; mortality at 1250 ppm [8]: 100%; mortality at 10 ppm [9]: 0%; mortality at 39 ppm [9]: 100%; mortality at 312 ppm [10]: 50%; mortality at 625 ppm [10]: 84%; mortality at 156 ppm [11]: 100%; mortality at 312 ppm [11]: 100%; mortality at 1250 ppm [11]: 100%; LD50 at 336 h [12]: 9.4 mg/kg; LD50 relative to that of aldicarb [13]: 19 times; Enhancement LD50 Derivative/LD50 Aldicarb [13]: 19; mortality at 156 ppm [14]: 0%; mortality at 312 ppm [14]: 24%; mortality at 625 ppm [14]: 25%; mortality at 1250 ppm [14]: 33%; mortality at 312 ppm [15]: 0%; mortality at 1250 ppm [15]: 2.6% |
